Results published in US20100249082A1, “MODULATORS OF HYPOXIA INDUCIBLE FACTOR-1 AND RELATED USES” (Bionaut Pharmaceuticals INC., priority 2007, published 2010).

Columns and labels:
[1] = target: T1, Na^+, K^+-ATPase (Homo sapiens, UniProt P05023); assay: cell-based; conditions: for inhibition at 0.01 µM / inhibition at 0.1 µM / inhibition at 1 µM / inhibition at 5 µM / inhibition at 10 µM / inhibition at 50 µM: HEK293, HEK-293; for inhibition at 0.01 µM: Log[drug](M) −8.0; for inhibition at 5 µM: Log[drug](M) −5.3; for inhibition at 10 µM: Log[drug](M) −5.0; for inhibition at 50 µM: Log[drug](M) −4.3; for Rank order: HEK-293, ranked on potency (IC50 value); for Sample Solubility: HEK-293 screen test wells, 1% DMSO
T1 construct: The HEK-293 cell line endogenously expressing Na^+, K^+-ATPase; endogenous in cells; host or cells: HEK-293
Protocol: Cells were plated at a density of 50,000 cells/well in 96-well microplates and incubated at 37° C., 5% CO2 until 80-90% confluency was attained

[2] = test system: Na^+, K^+-ATPase; assay: cell-based; conditions: for Inhibition (%) / Normalized Uptake (%): CHO-K1; for Sample Solubility: CHO-K1 screen test wells, 1% DMSO
Protocol: (§1) Compounds were screened using Ion Channel Research (ICR) technology and a non-radioactive Rubidium Uptake Assay
(§2) For all the test compounds and standard blockers, 100× solutions were used to prepare 1× test doses for Na^+, K^+-ATPase screen in CHO cell line. The final DMSO concentration in each well was 1%.
(§3) • 1. […] Rb^+ Uptake: Cells were washed with 200 μl of Rb^+ Uptake Buffer once and R^+ loaded by application of 198 μl R^+ Uptake Buffer. Compounds were added at 2 μl/well of a 100× stock solution in 100% DMSO in the uptake buffer followed by incubation for 30 minutes at room temperature (c. 22° C.). The total volume in each well was 200 μl (198 μl of R^+ Uptake Buffer and 2 μl of the 100× compound). The 100× compound solution gets diluted in R^+ Uptake Buffer to 1× and the DMSO to 1%. • 3. Wash: Residual R^+ and compound were removed by four successive washes with 200 μl of SPA-Wash Buffer. • 4. Cell Lysis: Intracellular samples were obtained by whole cell lysis with the application of 200 μl Lysis Solution. • 5. Analysis: The level of R^+ in the intracellular samples was measured by ICR8000 (Aurora Biomed Inc., Vancouver, Canada). using flame atomic absorption spectroscopy.

[3] = target: Na^+, K^+-ATPase (Cricetulus griseus, UniProt A0A8C2N4Z0); assay: cell-based
Protocol: as §1, §2, §3

[4] = Sample solubility noted in the rubidium uptake assay; format: physicochemical; conditions: DMSO 1.0%

| Compound | IC50 [1] [µM] | Rank order [1] | Inhibition (%) ([2]; dose 1.0 uM) | Normalized Uptake (%) ([2]; dose 1.0 uM) | Inhibition (%) ([2]; dose 5.0 uM) | Normalized Uptake (%) ([2]; dose 5.0 uM) | Inhibition (%) ([2]; dose 10 uM) | Normalized Uptake (%) ([2]; dose 10 uM) | Inhibition (%) ([2]; dose 50 uM) | Normalized Uptake (%) ([2]; dose 50 uM) | Inhibition (%) ([2]; dose 100 uM) | Normalized Uptake (%) ([2]; dose 100 uM) | Inhibition (%) ([2]; dose 200 uM) | Normalized Uptake (%) ([2]; dose 200 uM) | Inhibition (%) ([2]; dose 500 uM) | Normalized Uptake (%) ([2]; dose 500 uM) | Sample Solubility [2] | IC50 [3] [µM] | Inhibition (%) ([2]; dose 0.50 uM) | Normalized Uptake (%) ([2]; dose 0.50 uM) | also measured |
| --- | --- | --- | --- | --- | --- | --- | --- | --- | --- | --- | --- | --- | --- | --- | --- | --- | --- | --- | --- | --- | --- |
| C[C@]12CCC(=NOCCCCN3CCCCC3)C=C1CCC1C2CC[C@]2(C)[C@@H](c3ccc(=O)oc3)CC[C@]12O (some centres unmarked) [BP247, 3-[4-(Piperidinobutoxy)imino]-scillarinone] | 0.183 | 1 | −0.3 | 96.2 | 9.2 | 88.2 | 15.2 | 83.2 | 44.9 | 58.3 | 67.7 | 39.0 | 89.0 | 21.1 | 100.0 | 11.9 | Good | 47.4 |  |  | inhibition at 0.01 µM [1]: 0%; inhibition at 0.1 µM ([1]; Log[drug](M) −7.0): 44.9%; inhibition at 0.1 µM ([1]; Log[drug](M) −7.3): 17.1%; inhibition at 1 µM ([1]; Log[drug](M) −6.0): 79.9%; inhibition at 1 µM ([1]; Log[drug](M) −6.3): 68.4%; inhibition at 5 µM [1]: 94.8%; inhibition at 10 µM [1]: 93.5%; inhibition at 50 µM [1]: 100%; Sample Solubility [1]: Good; inhibition at 0.5 µM ([3]; CHO-K1): 0%; remaining activity at 0.5 µM ([3]; CHO-K1, 0.5 h, read-out: Normalized Uptake (%)): 96% |
| C[C@]12CCC(=NOCCCCCN3CCCCC3)C=C1CCC1C2CC[C@]2(C)[C@@H](c3ccc(=O)oc3)CC[C@]12O (some centres unmarked) [BP248, 3-[5-(Piperidinopentoxy)imino]-scillarinone] | 5.55 | 4 | 0.0 | 105.6 | 9.1 | 96.6 | 27.0 | 81.1 | 61.2 | 51.5 | 84.1 | 31.6 | 94.0 | 23.1 | 100.0 | 17.9 | Good | 27.9 | 1.3 | 104.5 | inhibition at 0.01 µM [1]: 0%; inhibition at 0.1 µM ([1]; Log[drug](M) −7.0): 1.7%; inhibition at 0.1 µM ([1]; Log[drug](M) −7.3): 0.8%; inhibition at 1 µM ([1]; Log[drug](M) −6.0): 10.1%; inhibition at 1 µM ([1]; Log[drug](M) −6.3): 4.5%; inhibition at 5 µM [1]: 44.7%; inhibition at 10 µM [1]: 74%; inhibition at 50 µM [1]: 100%; Sample Solubility [1]: Good |
| C[C@]12CCC(=NOCCN3CCC(Cc4ccccc4)CC3)C=C1CCC1C2CC[C@]2(C)[C@@H](c3ccc(=O)oc3)CC[C@]12O (some centres unmarked) [BP249, 3-[2-(4-Benzylpiperidinoethoxy)imino]-scillarinone] | 5.53 | 4 | 0.0 | 103.5 | 2.6 | 100.7 | 17.9 | 87.9 | 54.2 | 57.3 | 73.4 | 41.0 | 87.8 | 29.0 | 100.0 | 18.7 | Good | 41.9 | 0.6 | 103.0 | Sample Solubility [4]: Good |
| C[C@H]1O[C@@H](O[C@H]2[C@@H](O)C[C@H](O[C@H]3[C@@H](O)C[C@H](O[C@H]4CC[C@@]5(C)[C@H](CC[C@@H]6[C@@H]5CC[C@]5(C)[C@@H](C7=CC(=O)OC7)CC[C@]65O)C4)O[C@@H]3C)O[C@@H]2C)C[C@H](O)[C@@H]1O [Digitoxin, reference compound] | 1.1 | 2 | 6.2 | 93.8 | 8.6 | 91.4 | 19.8 | 80.2 | 51.9 | 48.1 | 76.8 | 23.2 |  |  | 89.7 | 10.3 |  | 44.9 | 0.0 | 100.0 | Inhibition (%) ([2]; dose 1000 uM): 100.0%; Normalized Uptake (%) ([2]; dose 1000 uM): 0.0% |
